Results: patent US7749981B2, “Drug-eluting stents coated with non-nucleotide P2Y12 receptor antagonist compound” (Inspire Pharmaceuticals, Inc., priority 2005, dated 2010)
Where two headings read alike, the source gives them in different places.

System: washed human platelets
Assay: Inhibition of ADP-induced platelet aggregation in washed human platelets
Assay type: cell-based
Settings: for IC50: agonist challenge (ADP) typically 1-5 μM, average of two experiments or more; for activity as antagonists of P2Y12-mediated platelet aggregation (in words): comment on Table 1 data
Method: Isolation of Platelets: Human blood is obtained from informed healthy adult volunteers. Blood is collected into one-sixth volume of acid/citrate/dextrose (ACD) buffer (85 mM sodium citrate, 65 mM citric acid, and 100 mM glucose). Collected blood is placed in a water bath at 37° C. for 30 minutes. Blood is then centrifuged at 275×g for 16 minutes at room temperature and the platelet-rich plasma is removed and centrifuged at 2200×g for 13 minutes at room temperature. The platelet pellet is resuspended in 40 mL of HEPES-buffered Tyrode's solution (137 mM NaCl, 2.7 mM KCl, 1 mM MgCl2, 2 mM CaCl2, 12 mM NaHCO3, 0.36 mM NaH2PO4, 5.5 mM glucose, 5 mM HEPES pH 7.4, 0.35% bovine serum albumin or 0.35% human serum albumin) containing 10 U/mL heparin and 5 μM (final concentration) prostaglandin 12 (PGI2). The platelet suspension is incubated in a 37° C. water bath for 10 minutes and then 5 μM (final conc.) PGI2 is added just before centrifugation at 1900×g for 8 minutes. The resulting pellet is resuspended in 40 mL of HEPES-buffered Tyrode's solution containing 5 μM (final concentration) PGI2 and then is incubated for 10 minutes in a 37° C. water bath. A small aliquot (500 μL) of the platelet suspension is removed for platelet counting. Prior to centrifugation 5 μM (final concentration) PGI2 is added to the suspension and then the suspension is centrifuged at 1900×g for 8 minutes. The pellet is resuspended at a density of 5×10^8 cells/mL in HEPES-buffered Tyrode's solution containing 0.05 U/mL apyrase.
Aggregation Studies: ADP-induced platelet aggregation is determined by measuring the transmission of light through a 0.5 ml suspension of stirred (1000 rpm) washed platelets in a lumi-aggregometer at 37° C. (Chrono-Log Corp. Havertown, Pa.). The baseline of the instrument is set using 0.5 ml of Hepes-buffered Tyrode's solution. Prior to aggregation measurements, the platelet suspension is supplemented with 1 mg/ml fibrinogen. Platelet aggregation is initiated by the addition of indicated concentrations of ADP or other agonists, and the light transmission is continuously recorded for at least 8 min. When inhibitors of platelet aggregation are tested, platelets are incubated for 2 min in the presence of indicated concentrations of inhibitor before addition of ADP or other agonists, and the response is recorded for at least 8 min. The potency of agonists and inhibitors of platelet aggregation is calculated from both the rate of aggregation and the maximal extent of aggregation obtained for each determination by fitting the data to a four-parameter logistic equation using the GraphPad software package (GraphPad Corp. San Diego, Calif.).
IC50 values represent the concentration of antagonist necessary to inhibit by 50% the aggregation elicited by a given concentration of ADP.
Platelet IC50 data were determined using washed human platelets, according to the protocol of example 14. Agonist challenge (ADP) typically in the range of 1-5 μM.

[1] = Homo sapiens, Platelet, read-out: PLATELET DATA IC50 (uM) Washed Platelets, washed human platelets
[2] = read-out: PLATELET DATA IC50 (uM) Washed Platelets, washed human platelets

Row | Compound | IC50 [1] | activity as antagonists of P2Y12-mediated platelet aggregation (in words) (washed human platelets) | IC50 [2]
1 | O=C(Nc1ccccc1)Nc1ncnc2c1ncn2C1OC(COc2ncccc2C(=O)O)C2OC(c3ccc4ccccc4c3)OC21 (stereo not drawn) [Compound 19, 2-{2-Naphthalen-2-yl-6-[6-(3-phenyl-ureido)-purin-9-yl]-tetrahydro-furo[3,4-d][1,3]dioxol-4-ylmethoxy}-nicotinic acid] | 18 µM | show P2Y12 antagonist activity | 
2 | CCNC(=O)Nc1ncnc2c1ncn2C1CC(COCC(=O)O)C2OC(C=Cc3ccccc3)OC21 (stereo not drawn) [Compound 189, {6-[6-(3-Ethyl-ureido)-purin-9-yl]-2-trans-styryl-tetrahydro-cyclopenta[1,3]dioxol-4-ylmethoxy}-acetic acid] |  | P2Y12 antagonist activity can be obtained | 0.243 µM
3 | CCNC(=O)Nc1ncnc2c1ncn2C1OC(CCC(=O)O)C2OC(C=Cc3ccccc3)OC21 (stereo not drawn) [Compound 183, 3-{6-[6-(3-Ethyl-ureido)-purin-9-yl]-2-styryl-tetrahydro-furo[3,4-d][1,3]dioxol-4-yl}-propionic acid] | 0.376 µM | P2Y12 antagonist activity can be obtained | 
4 | CCNC(=O)Nc1ncnc2c1ncn2C1OC(CCc2c(F)cccc2C(=O)O)C2O[C@H](c3ccccc3)OC21 (stereo partly drawn) [Compound 158, 2-(2-{6-[6-(3-Ethyl-ureido)-purin-9-yl]-2-trans-phenyl-tetrahydro-furo[3,4-d][1,3]dioxol-4-yl}-ethyl)-3-fluoro-benzoic acid] | 8 µM | active molecules | 
5 | CCNC(=O)Nc1ncnc2c1ncn2C1OC(CNCC(=O)O)C2O[C@H](/C=C/c3ccccc3)OC21 (stereo partly drawn) [Compound 191, ({6-[6-(3-Ethyl-ureido)-purin-9-yl]-2-trans-styryl-tetrahydro-furo[3,4-d][1,3]dioxol-4-ylmethyl}-amino)-acetic acid] | 0.512 µM | P2Y12 antagonist activity can be obtained | 
6 | CCNC(=O)Nc1ncnc2c1ncn2C1OC(C(=O)N2CCC[C@@H]2C(=O)O)C2O[C@H](/C=C/c3ccccc3)OC21 (stereo partly drawn) [Compound 70, 1-{6-[6-(3-Ethyl-ureido)-purin-9-yl]-2-trans-styryl-tetrahydro-furo[3,4-d][1,3]dioxole-4-carbonyl}-D-pyrrolidine-2-carboxylic acid] | 0.397 µM | improved potency | 
7 | CCCCCCNC(=O)Nc1ncnc2c1ncn2C1OC(COc2ncccc2C(=O)O)C2OC(c3ccccc3)OC21 (stereo not drawn) [Compound 24, 2-{6-[6-(3-Hexyl-ureido)-purin-9-yl]-2-phenyl-tetrahydro-furo[3,4-d][1,3]dioxol-4-ylmethoxy}-nicotinic acid] | 2.15 µM | show P2Y12 antagonist activity | 
8 | CCNC(=O)Nc1ncnc2c1ncn2C1CC(COC(=S)NCC(=O)O)C2O[C@H](/C=C/c3ccccc3)OC21 (stereo partly drawn) [Compound 233, {6-[6-(3-Ethyl-ureido)-purin-9-yl]-2-trans-styryl-tetrahydro-cyclopenta[1,3]dioxol-4-ylmethoxythiocarbonylamino}-acetic acid] | 0.503 µM | show P2Y12 antagonist activity | 
9 | CCNC(=O)Nc1ncnc2c1ncn2C1OC(C(=O)N2CCC[C@H]2C(=O)O)C2OC(c3ccccc3)OC21 (stereo in doubt) [Compound 69, 1-{6-[6-(3-Ethyl-ureido)-purin-9-yl]-2-trans-phenyl-tetrahydro-furo[3,4-d][1,3]dioxole-4-carbonyl}-L-pyrrolidine-2-carboxylic acid] |  | improved potency | 0.441 µM
10 | CCNC(=O)Nc1ncnc2c1ncn2C1CC(COCc2ncccc2C(=O)O)C2OC(/C=C/c3ccccc3)OC21 (stereo not drawn) [Compound 130, 2-{6-[6-(3-Ethyl-ureido)-purin-9-yl]-2-trans-styryl-tetrahydro-cyclopenta[1,3]dioxol-4-ylmethoxymethyl}-nicotinic acid] |  |  | 0.057 µM
11 | O=C(Nc1ccccc1)Nc1ncnc2c1ncn2C1OC(COc2ncccc2C(=O)O)C2OC(c3ccccc3C(F)(F)F)OC21 (stereo not drawn) [Compound 14, 2-[6-[6-(3-Phenyl-ureido)-purin-9-yl]-2-(2-trifluoromethyl-phenyl)-tetrahydro-furo[3,4-d][1,3]dioxol-4-ylmethoxy]-nicotinic acid] | 8.1 µM | show P2Y12 antagonist activity | 
12 | CCNC(=O)Nc1ncnc2c1ncn2C1CC(COCc2ccsc2C(=O)O)C2OC(C=Cc3ccccc3)OC21 (stereo not drawn) [Compound 298, 3-{6-[6-(3-Ethyl-ureido)-purin-9-yl]-2-styryl-tetrahydro-cyclopenta[1,3]dioxol-4-ylmethoxymethyl}-thiophene-2-carboxylic acid] | 0.081 µM | are active | 
13 | 2-{6-[6-(3-Ethyl-ureido)-purin-9-yl]-2-phenylethynyl-tetrahydro-furo[3,4-d][1,3]dioxol-4-ylmethoxy}-nicotinic acid [Compound 26] |  | show P2Y12 antagonist activity | 1 µM
14 | CS(=O)(=O)NC(=O)NCC1OC(n2cnc3c(NC(=O)Nc4ccccc4)ncnc32)C2OC(Cc3ccccc3)OC12 (stereo not drawn) [Compound 37, 1-(9-{2-Benzyl-6-[(3-methylsulfonyl-ureido)-methyl]-tetrahydro-furo[3,4-d][1,3]dioxol-4-yl}-9H-purin-6-yl)-3-phenyl-urea] | 15 µM | show P2Y12 antagonist activity | 
15 | O=C(Nc1ncnc2c1ncn2C1OC(C(=O)N2CCCC2C(=O)O)C2OC(Cc3ccccc3)OC21)NC1CCCC1 (stereo not drawn) [Compound 36, 1-{2-Benzyl-6-[6-(3-cyclopentyl-ureido)-purin-9-yl]-tetrahydro-furo[3,4-d][1,3]dioxole-4-carbonyl}-pyrrolidine-2-carboxylic acid] | 0.75 µM | show P2Y12 antagonist activity | 
16 | CCNC(=O)Nc1ncnc2c1ncn2C1OC(COCc2ccccc2C(=O)O)C2O[C@@H](c3ccccc3)OC21 (stereo partly drawn) [Compound 108, 2-{6-[6-(3-Ethyl-ureido)-purin-9-yl]-2-cis-phenyl-tetrahydro-furo[3,4-d][1,3]dioxol-4-ylmethoxymethyl}-benzoic acid] | < 0.1 µM |  | 0.098 µM
17 | CCNC(=O)Nc1ncnc2c1ncn2C1OC(C(=O)O)C2O[C@H](/C=C/c3ccccc3)OC21 (stereo partly drawn) [Compound 210, 6-[6-(3-Ethyl-ureido)-purin-9-yl]-2-trans-styryl-tetrahydro-furo[3,4-d][1,3]dioxole-4-carboxylic acid] | 0.163 µM | P2Y12 antagonist activity can be obtained | 
18 | CCNC(=O)Nc1ncnc2c1ncn2C1CC(CNC(=O)c2ccccc2C(=O)O)C2OC(C=Cc3ccccc3)OC21 (stereo not drawn) [Compound 239, N-{6-[6-(3-Ethyl-ureido)-purin-9-yl]-2-trans-styryl-tetrahydro-cyclopenta[1,3]dioxol-4-ylmethyl}-phthalamic acid] |  | show potent activity | 0.086 µM
19 | CCNC(=O)Nc1ncnc2c1ncn2C1OC(C(=O)N2CCC[C@H]2C(=O)O)C2O[C@H](c3ccccc3)OC21 (stereo partly drawn) [Compound 65, 1-{6-[6-(3-Ethyl-ureido)-purin-9-yl]-2-trans-phenyl-tetrahydro-furo[3,4-d][1,3]dioxole-4-carbonyl}-L-pyrrolidine-2-carboxylic acid] | 0.728 µM | improved potency | 
20 | CCNC(=O)Nc1ncnc2c1ncn2C1OC(COCc2ccccc2C(=O)O)C2O[C@H](c3ccccc3)OC21 (stereo partly drawn) [Compound 107, 2-{6-[6-(3-Ethyl-ureido)-purin-9-yl]-2-trans-phenyl-tetrahydro-furo[3,4-d][1,3]dioxol-4-ylmethoxymethyl}-benzoic acid] | < 0.1 µM |  | 0.057 µM
